# Reference: US8957093B2, “N-biphenylmethylindole modulators of PPARG” (The Scripps Research Institute, priority 2011, dated 2015)
# Target: GST-PPARG-LBD (Homo sapiens (Human), UniProt P37231)
# Assay: Lanthascreen PPARG competitive binding assay (Invitrogen, TR-FRET)
# Settings: Lanthascreen PPARG competitive binding; inc = incomplete curve; NA = not active
# Description: Lanthascreen PPARG Competitive Binding Assay (Invitrogen)
# The assay was performed according to manufacturer protocol. A mixture of […], 5 nM Tb-GST-antibody, 5 nM Fluormone Pan-PPAR Green, and serial dilutions of the experimental compound, beginning at 10 μM downwards, was added to wells of black 384-well low-volume plates (Greiner) to a total volume of 18 μL. All dilutions were made in TR-FRET assay buffer C. DMSO at 2% final concentration was used as a no-ligand control. Experiment was performed in triplicate, and incubated for 2 hours in the dark prior to assay read in Perkin Elmer ViewLux ultra HTS microplate reader. FRET signal was measured by excitation at 340 nm and emission at 520 nm for fluorescein and 490 nm for terbium. Fold change over DMSO was calculated using GraphPad Prism Software (La Jolla, Calif.) by calculating 520 nm/490 nm ratio. Graphs were plotted as fold change of FRET signal for compound treatment over DMSO-only control.
# Sequence of GST-PPARG-LBD (P37231 238-503): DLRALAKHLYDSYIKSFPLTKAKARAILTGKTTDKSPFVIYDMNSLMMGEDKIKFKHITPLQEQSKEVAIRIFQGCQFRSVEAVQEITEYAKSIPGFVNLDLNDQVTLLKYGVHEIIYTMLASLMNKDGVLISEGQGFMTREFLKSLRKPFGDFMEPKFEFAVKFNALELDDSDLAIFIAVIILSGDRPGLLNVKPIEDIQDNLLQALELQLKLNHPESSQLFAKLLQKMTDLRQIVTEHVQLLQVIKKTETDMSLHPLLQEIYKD
row,IC50 (nM) Lantha,SMILES
1,inc,"Cc1c(C)n(Cc2ccc(-c3ccccc3C#N)cc2)c2ccc(C(=O)N[C@@H](C)c3cccc(C(F)(F)F)c3)cc12 [Example 282, (S)-1-((2′-cyano-[1,1′-biphenyl]-4-yl)methyl)-2,3-dimethyl-N-(1-(3-(trifluoromethyl)phenyl)ethyl)-1H-indole-5-carboxamide]"
2,inc,"Cc1c(C)n(Cc2ccc(-c3ccccc3C#N)cc2)c2ccc(C(=O)N[C@@H](C)c3cccc(Br)c3)cc12 [Example 284, (S)—N-(1-(3-bromophenyl)ethyl)-1-((2′-cyano-[1,1′-biphenyl]-4-yl)methyl)-2,3-dimethyl-1H-indole-5-carboxamide]"
3,inc,"COc1ccc([C@H](C)NC(=O)c2ccc3c(c2)c(C)c(C)n3Cc2ccc(-c3ccccc3C#N)cc2)cc1 [Example 285, (S)-1-((2′-cyano-[1,1′-biphenyl]-4-yl)methyl)-N-(1-(4-methoxyphenyl)ethyl)-2,3-dimethyl-1H-indole-5-carboxamide]"
4,inc,"Cc1c(C)n(Cc2ccc(-c3ccccc3C#N)cc2)c2ccc(C(=O)N[C@@H](C)c3ccc(F)cc3F)cc12 [Example 286, (S)-1-((2′-cyano-[1,1′-biphenyl]-4-yl)methyl)-N-(1-(2,4-difluorophenyl)ethyl)-2,3-dimethyl-1H-indole-5-carboxamide]"
5,inc,"CCOc1cccc([C@H](C)NC(=O)c2ccc3c(c2)c(C)c(C)n3Cc2ccc(-c3ccccc3C#N)cc2)c1 [Example 280, (S)-1-((2′-cyano-[1,1′-biphenyl]-4-yl)methyl)-N-(1-(3-ethoxyphenyl)ethyl)-2,3-dimethyl-1H-indole-5-carboxamide]"

# Same assay, conditions: Lanthascreen PPARG competitive binding; inc = incomplete curve; NA = not active; read-out: IC50 (nM) Lantha
row,SMILES,IC50
1,"Cc1c(C)n(Cc2ccc(-c3ccccc3C#N)cc2)c2ccc(C(=O)N[C@@H](C)c3ccc(OC(C)C)cc3)cc12 [Example 278, (S)-1-((2′-cyano-[1,1′-biphenyl]-4-yl)methyl)-N-(1-(4-isopropoxyphenyl)ethyl)-2,3-dimethyl-1H-indole-5-carboxamide]",808 nM
2,"Cc1c(C)n(Cc2ccc(-c3ccccc3C(=O)O)cc2)c2ccc(C(=O)N[C@H](C)c3ccc(S(C)(=O)=O)cc3)cc12 [Example 276, (R)-4′-((2,3-dimethyl-5-(1-(4-(methylsulfonyl)phenyl)ethylcarbamoyl)-1H-indol-1-yl)methyl)biphenyl-2-carboxylic acid]",11 nM
3,"Cc1c(C)n(Cc2ccc(-c3ccccc3C(=O)NC[C@@H](O)C(=O)N(C)C)cc2)c2ccc(C(=O)N[C@@H](C)c3cccc(C(C)C)c3)cc12 [Example 309, 1-((2′-(((R)-3-(Dimethylamino)-2-hydroxy-3-oxopropyl)carbamoyl)-[1,1′-biphenyl]-4-yl)methyl)-N-((S)-1-(3-isopropylphenyl)ethyl)-2,3-dimethyl-1H-indole-5-carboxamide]",> 1000 nM
4,"Cc1c(C)n(Cc2ccc(-c3ccccc3C(=O)N3CC[C@H](O)C3)cc2)c2ccc(C(=O)N[C@@H](C)c3cccc(C(C)C)c3)cc12 [Example 306, 1-((2′-((S)-3-Hydroxypyrrolidine-1-carbonyl)-[1,1′-biphenyl]-4-yl)methyl)-N-((S)-1-(3-isopropylphenyl)ethyl)-2,3-dimethyl-1H-indole-5-carboxamide]",> 500 nM

# Same assay, conditions: Lanthascreen competitive binding; NA = not active; inc = incomplete curve
row,IC50 (nM) Lantha,SMILES
1,inc,"Cc1c(C)n(Cc2ccc(-c3ccccc3C#N)cc2)c2ccc(C(=O)N[C@@H](C)c3cccc(C(C)C)c3)cc12 [Example 242, (S)-1-((2′-cyano-[1,1′-biphenyl]-4-yl)methyl)-N-(1-(3-isopropylphenyl)ethyl)-2,3-dimethyl-1H-indole-5-carboxamide]"
2,inc,"Cc1c(C)n(Cc2ccc(-c3ccccc3C#N)cc2)c2ccc(C(=O)N[C@@H](C)c3ccc(C(C)C)cc3)cc12 [Example 186, (S)-1-((2′-cyano-[1,1′-biphenyl]-4-yl)methyl)-N-(1-(4-isopropylphenyl)ethyl)-2,3-dimethyl-1H-indole-5-carboxamide]"

# Same assay, conditions: Lanthascreen competitive binding; NA = not active; inc = incomplete curve; read-out: IC50 (nM) Lantha
row,SMILES,IC50
1,"C[C@H](NC(=O)c1ccc2c(ccn2Cc2ccc(-c3cccc(N)c3)cc2)c1)c1ccc([N+](=O)[O-])cc1 [Example 52, (S)-1-((3′-Amino-[1,1′-biphenyl]-4-yl)methyl)-N-(1-(4-nitrophenyl)ethyl)-1H-indole-5-carboxamide]",> 1000 nM
2,"COc1c(F)cccc1[C@H](C)NC(=O)c1ccc2c(c1)c(C)c(C)n2Cc1ccc(-c2ccccc2C(=O)O)cc1 [Example 177, (S)-4′-((5-((1-(3-fluoro-2-methoxyphenyl)ethyl)carbamoyl)-2,3-dimethyl-1H-indol-1-yl)methyl)-[1,1′-biphenyl]-2-carboxylic acid]",21 nM
3,"COc1cc(CNC(=O)c2ccc3c(c2)c(C)c(C)n3Cc2ccc(-c3ccccc3C(=O)O)cc2)cc(OC)c1 [compound 22, 4′-((5-(3,5-Dimethoxybenzylcarbamoyl)-2,3-dimethyl-1H-indol-1-yl)methyl)biphenyl-2-carboxylic acid]",10 nM
4,"C[C@H](NC(=O)c1ccc2c(ccn2Cc2ccc(-c3cccc(C(=O)O)c3)cc2)c1)c1ccc([N+](=O)[O-])cc1 [Example 60, (S)-4′-((5-((1-(4-Nitrophenyl)ethyl)carbamoyl)-1H-indol-1-yl)methyl)-[1,1′-biphenyl]-3-carboxylic acid]",> 1000 nM
5,"C[C@H](NC(=O)c1ccc2c(ccn2Cc2ccc(-c3ccc(S(C)(=O)=O)cc3)cc2)c1)c1ccc([N+](=O)[O-])cc1 [Example 50, (S)-1-((4′-(Methylsulfonyl)-[1,1′-biphenyl]-4-yl)methyl)-N-(1-(4-nitrophenyl)ethyl)-1H-indole-5-carboxamide]",> 1000 nM
6,"Cc1c(C)n(Cc2ccc(-c3ccccc3C(=O)O)cc2)c2ccc(C(=O)N[C@@H](C)c3ccc(S(C)(=O)=O)cc3)cc12 [Example 258, (S)-4′-((2,3-dimethyl-5-(1-(4-(methylsulfonyl)phenyl)ethylcarbamoyl)-1H-indol-1-yl)methyl)biphenyl-2-carboxylic acid]",636 nM
7,"CC[C@H](NC(=O)c1ccc2c(ccn2Cc2ccccc2-c2ccc(C(=O)O)cc2)c1)c1ccccc1 [Example 189, (S)-2′-((5-((1-phenylpropyl)carbamoyl)-1H-indol-1-yl)methyl)-[1,1′-biphenyl]-4-carboxylic acid]",100 nM
8,"Cc1c(C)n(Cc2ccc(-c3ccccc3C(=O)O)cc2)c2ccc(C(=O)N[C@@H](C)c3ccccc3OC(F)(F)F)cc12 [Example 256, (S)-4′-((2,3-dimethyl-5-(1-(2-(trifluoromethoxy)phenyl)ethylcarbamoyl)-1H-indol-1-yl)methyl)biphenyl-2-carboxylic acid]",38 nM
9,"Cc1c(C)n(Cc2ccc(-c3ccccc3C(=O)O)cc2)c2ccc(C(=O)NCc3cccc(CN)c3)cc12 [Example 82, 4′-((5-(3-(aminomethyl)benzylcarbamoyl)-2,3-dimethyl-1H-indol-1-yl)methyl)biphenyl-2-carboxylic acid]",> 1000 nM
10,"COc1ccc(CNC(=O)c2ccc3c(c2)c(C)c(C)n3Cc2ccc(-c3ccccc3C(=O)O)cc2)cc1F [Example 111, 4′-((5-(3-fluoro-4-methoxybenzylcarbamoyl)-2,3-dimethyl-1H-indol-1-yl)methyl)biphenyl-2-carboxylic acid]",13 nM
11,"Cc1c(C)n(Cc2ccc(-c3ccccc3C(=O)O)cc2)c2ccc(C(=O)NCc3ccc(C(F)(F)F)cc3)cc12 [Example 101, 4′-((2,3-dimethyl-5-(4-(trifluoromethyl)benzylcarbamoyl)-1H-indol-1-yl)methyl)biphenyl-2-carboxylic acid]",208 nM
